Measurements: patent publication US20130337564A1, “Treatment of Pluripotent Cells” (Janssen Biotech, Inc., priority 2012, published 2013)

Legend:
[1] = MTS viability (toxicity) assay of cells expressing pluripotency markers; type: cell-based, human; conditions: human, MTS on day 4, relative to Activin A + Wnt3a positive control, read-out: % Control (percentage viability of control); for viability at 4 days, 2.5 μM: cmpd conc 2.5 μM; for viability at 4 days, 5 μM: cmpd conc 5 μM; for viability at 4 days, 10 μM: cmpd conc 10 μM
Method in brief: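 Cells expressing pluripotency markers, derived from human embryonic stem cells, were plated at 20,000 cells per well in 96-well clear-bottom plates and cultured overnight. Test compounds were applied in assay medium on days 1 and 2, and compound-free medium on days 3 and 4. On day 4, MTS was added and optical density at 490 nm was read in duplicate.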

[2] = test system: human embryonic stem cell line H1; assay: Dose titration secondary assay: cell number, H1; type: cell-based; conditions: Homo sapiens, Embryonic stem cell, positive control (Wnt3a/Activin A) normalized to 1.000; for activity at 0.156 µM: Conc 0.156 μM; for activity at 0.313 µM: Conc 0.313 μM; for activity at 0.625 µM: Conc 0.625 μM; for activity at 1.25 µM: Conc 1.25 μM; for activity at 2.5 µM: Conc 2.5 μM; for activity at 5 µM: Conc 5 μM; for activity at 10 µM: Conc 10 μM
Protocol: It was important to confirm the activity of hits identified from primary screening and further analyze the range of activity by dose titration. New samples of a selective subset of primary screening hits were obtained as dry powders, solubilized to make fresh stock reagents, and diluted into secondary confirmation assays to evaluate effects on human embryonic stem cells.
Culture of two human embryonic stem cells (H1 and H9) was conducted as described in Example 1. Colonies of cells were maintained in an undifferentiated, pluripotent state on Matrigel™ ([…]) coated polystyrene plastic, using a 1:30 dilution of Matrigel™ in DMEM:F12 to coat the surface. Cells were split by enzymatic passage every four days on average. Passage was performed by exposing cell monolayers to a solution of collagenase (1 mg/ml; Sigma-Aldrich) for 10 to 60 minutes at 37° C. followed by gentle scraping with a pipette tip to recover cell clusters. Clusters were allowed to sediment by gravity, then washed to remove residual collagenase. Cell clusters were split at a 1:3 ratio for maintenance culture or a 1:1 ratio for subsequent assay. The human embryonic stem cell lines were maintained at less than passage 50 and routinely evaluated for normal karyotypic phenotype and absence of mycoplasma contamination.
Cell clusters of the H1 or H9 human embryonic stem cell lines used in the assay were evenly resuspended in culture medium and plated onto Matrigel™-coated 96-well Packard VIEWPLATES (PerkinElmer) in volumes of 100 μl/well. MEF conditioned medium supplemented with 8 ng/ml bFGF was used for initial plating and expansion. Daily feeding was conducted by aspirating spent culture medium from each well and replacing with an equal volume of fresh medium. Cultures were allowed to expand one to three days after plating prior to initiating assay. Plates were maintained at 37° C., 5% CO2 in a humidified box for the duration of assay.
A subset of hits resulting from primary screening was used for follow-up study and subsequent secondary assays. Twenty compounds available as dry powders were solubilized as 10 mM stocks in DMSO and stored dessicated at […] until use Immediately prior to assay, compound stocks were diluted 1:1000 to make 10 μM test compound in DMEM:F12 base medium (Invitrogen) supplemented with 0.5% FCS (HyClone) and 100 ng/ml Activin A (R&D Biosystems). This was further diluted two-fold in series to make a seven point dilution curve for each compound, also in DMEM:F12 base medium with 0.5% FCS and 100 ng/ml Activin A.
Assay was initiated by aspirating culture medium from cell monolayers in each well followed by three washes in PBS to remove residual growth factors and serum. Test volumes of 100 μl per well were added back containing medium with 0.5% FCS and different concentrations of inhibitor compounds with 100 ng/ml Activin A, without Wnt3a. Positive control wells contained the same base medium with 0.5% FCS and with 20 ng/ml Wnt3a (R&D Biosystems) in the absence of test compound. Negative control wells contained the same base medium with 0.5% FCS, in the absence of Activin A, Wnt3a, or test compound. Assay wells were aspirated and fed again with identical concentrations of test compound or control solutions on day 2 of assay. On days 3 and 4, all assay wells were aspirated and fed with DMEM:F12 supplemented with 2% FCS and 100 ng/ml Activin A in the absence of both test compound or Wnt3a. Parallel negative control wells were maintained on days 3 and 4 in DMEM:F12 base medium with 2% FCS.
At the end of culture, cells in 96-well plates were washed twice with PBS then fixed with 4% paraformaldehyde at room temperature for 20 minutes, washed three times more with PBS, and then permeabilized with 0.5% Triton X-100 for 20 minutes at room temperature. After fixing and permeabilizing, cells were washed again three times with PBS and then blocked with 4% chicken serum (Invitrogen) in PBS for 30 minutes at room temperature. […]

Compound | viability at 4 days, 2.5 μM [1] [%] | viability at 4 days, 5 μM [1] [%] | viability at 4 days, 10 μM [1] [%] | activity at 0.156 µM [2] [%] | activity at 0.313 µM [2] [%] | activity at 0.625 µM [2] [%] | activity at 1.25 µM [2] [%] | activity at 2.5 µM [2] [%] | activity at 5 µM [2] [%] | activity at 10 µM [2] [%]
CN(CCO)CCCn1nc(C2=C(c3cn(-c4cccnc4)c4ccccc34)C(=O)NC2=O)c2ccccc21 [Compound 198, 3-(1-{3-[(2-Hydroxyethyl)(methyl)amino]propyl}-1H-indazol-3-yl)-4-(1-pyridin-3-yl-1H-indol-3-yl)-1H-pyrrole-2,5-dione] | 92.5 | 83.8 | 49.7 | 82.2 | 75.4 | 74.2 | 89.9 | 103 | 106 | 101
CN(C)c1ccc(-n2cc(C3=C(c4nn(CCO)c5ccccc45)C(=O)NC3=O)c3cc(Cl)ccc32)cn1 [Compound 148, 3-{5-Chloro-1-[6-(dimethylamino)pyridin-3-yl]-1H-indol-3-yl}-4-[1-(2-hydroxyethyl)-1H-indazol-3-yl]-1H-pyrrole-2,5-dione] | 20.4 | 3.8 | 3.5 | 121 | 121 | 136 | 165 | 172 | 101 | 0.2
OCCC#Cc1nc(-c2ccc(F)cc2)c(-c2ccncc2)n1CCCc1ccccc1 [Compound 158, 4-[4-(4-Fluorophenyl)-1-(3-phenylpropyl)-5-pyridin-4-yl-1H-imidazol-2-yl]but-3-yn-1-ol] | 93.2 | 96.2 | 66.5 | 110 | 122 | 123 | 116 | 102 | 90.5 | 5.3
CC(C)(O)CCn1nc(C2=C(c3cn(-c4cccnc4)c4ccccc34)C(=O)NC2=O)c2ccccc21 [Compound 223, 3-[1-(3-Hydroxy-3-methylbutyl)-1H-indazol-3-yl]-4-(1-pyridin-3-yl-1H-indol-3-yl)-1H-pyrrole-2,5-dione] | 99.6 | 93.9 | 83.7 | 77.6 | 102 | 103 | 116 | 132 | 135 | 128
O=C1NC(=O)C(c2nn(CCCO)c3ccccc23)=C1c1cn(-c2cccnc2)c2ccc(Cl)cc12 [Compound 52, 3-(5-Chloro-1-pyridin-3-yl-1H-indol-3-yl)-4-[1-(3-hydroxypropyl)-1H-indazol-3-yl]-1H-pyrrole-2,5-dione] | 92 | 40.1 | 2.3 | 82.6 | 103 | 130 | 145 | 110 | 2.4 | 0
O=C1NC(=O)C(c2cn(CCCO)c3ncccc23)=C1c1cnccn1 [Compound 47, 3-[1-(3-Hydroxypropyl)-1H-pyrrolo[2,3-b]pyridin-3-yl]-4-pyrazin-2-yl-1H-pyrrole-2,5-dione] |  |  |  | 71.2 | 74.2 | 83.2 | 101 | 93.2 | 110 | 105
